For one series, the system named is PDE4. As to the kind of experiment: Cell Based Assay for PDE4 Inhibition: cAMP elevation in whole U937 cells. The settings on record: 1 μM PGE1, normalized over PGE1. How it is done:
Cell Based Assay for PDE4 Inhibition:
cAMP elevation studies were conducted in whole U937 cells. U937 cells (ATCC) were grown in RPMI medium containing 10% FBS, 1% pen-strep solution, 1% L-glutamine for 48 hrs. On the day of assay, the cells were washed twice with plain RPM1 medium by centrifuging at 800 rpm for 5 mins. Cells were resuspended in plain RPM1 medium followed by cell number and viability assessment using a trypan blue stain. Cells (0.15-0.2 mio cells per well) were seeded in a 96 well microtitre plate and incubated with various drugs/DMSO vehicle at 37° C. for 15 min. cAMP generation was started by addition of 1 μM PGE1 for 15 mins. The incubation was terminated by addition of cell lysis buffer from cAMP estimation kit. Lysate was used for cAMP quantitatin by chemiluminescence method (DiscoveRX kits). cAMP values were normalized over PGE1. EC50 values were calculated from dose response curves by nonlinear regression analysis using PRISM software.

The target of another series is PDE4 enzyme. As to the kind of experiment: Inhibition of Phosphodiesterase Enzymes (PDE4), [3H]cAMP hydrolysis. It is filed as biochemical. Conditions: PDE4 enzyme, 1 μM cAMP and 3H cAMP, 34° C.; read-out: IC50. On the procedure: Inhibition of Phosphodiesterase Enzymes (PDE4)
In this assay, PDE4 enzyme converts [^3H] cAMP to the corresponding [^3H] 5′-AMP in proportion to the amount of PDE4 present The [^3H] 5′-AMP then was quantitatively converted to free [^3H] adenosine and phosphate by the action of snake venom 5′-nucleotidase.
The assay was performed with modification of the method of Thompson and Appleman (Biochemistry; 1971; 10; 311-316) and Schwartz and Passoneau (Proc. Natl. Acad. Sci. U.S.A. 1974; 71; 3844-3848), both references incorporated herein by reference in their entirety, at 34° C. In a 200 ul total reaction mixture, the reaction mixture contained 12.5 mM of Tris, 5 mM MgCl2, 1 μM cAMP (cold) and ^3H cAMP (0.1 uCi), (Amersham). […] Drug samples were then added in the reaction mixture (25 μl/tube). The assay was initiated by addition of enzyme mix (75 μl) and the mixture was incubated for 20 minutes at 34° C. The reaction was stopped by boiling the tubes for 2 mins at 100° C. in a water bath. After cooling on ice for 5 minutes and addition of 50 ug/reaction of 5′-nucleotidase snake venom from Crotalus atrox incubation was carried out again for 20 min. at 34° C. The unreacted substrate was separated from (^3H) Adenosine by addition of Dowex AG 1-X8 (Biorad Lab), (400 ul) which was prequilibrated (1:1:1) in water and ethanol. Reaction mixture was then thoroughly mixed, placed on ice for 15 minutes, vortexed and centrifuged at 14,000 r.p.m. for 2 mins. After centrifugation, a sample of the supernatant was taken and added in 24 well optiplates containing Scintillant (1 ml) and mixed well. The samples in the plates were then determined for radioactivity in a Top Counter and the PDE4 activity was estimated. PDE4 enzyme was present in quantities that yield <30% total hydrolysis of substrate (linear assay conditions).
Results were expressed as percent inhibition (IC50) in nM concentrations. The IC50 values were determined from the concentration curves by nonlinear regression analysis.
The IC50 value for the compound examined was determined from concentration-response curves in which varying range of concentrations were considered as shown in table 1

What is called EC50 is the concentration at which the effect is half-maximal. Usually IC50 stands for the concentration needed to halve the response being measured. By melting point is commonly meant the temperature of the solid-liquid transition.

In turn, `O=C(Nc1c(Cl)c[n+]([O-])cc1Cl)c1ccc(OC(F)F)c2oc3ccc(C(F)(F)F)cc3c12` [Example 13, N-(3,5-dichloropyrid-4-yl)-4-difluoromethoxy-trifluoromethyl dibenzo[b,d]furan-1-carboxamide-N1-oxide] yielded an EC50 in the series on PDE4 of 128 nM. Besides, the IC50 on PDE4 enzyme was 2.54 nM.

`COc1ccc(C(=O)Nc2c(Cl)cncc2Cl)c2c1oc1ccc(C#N)cc12` [Example 57, N-(3,5dichloropyrid-4-yl)-4-methoxy-8-cyano-dibenzo[b,d]furan-1-carboxamide]: a half-maximal effect in the series with PDE4 (EC50) was put at 73.7 nM. The IC50 at PDE4 enzyme stood at 1.74 nM.

Turning to `O=C(Nc1c(Cl)c[n+]([O-])cc1Cl)c1ccc(OC(F)F)c2oc3ccccc3c12` [Example 56, N-(3,5-dichloropyrid-4-yl)-4-difluoromethoxy-dibenzo[b,d]furan-1-carboxamide-N-oxide], the EC50 in the series with PDE4 was 49.2 nM. The IC50 on PDE4 enzyme was 2.85 nM.

In the case of `COc1ccc(C(=O)Nc2cccnc2)c2c1oc1ccccc12` [Example 7, N-(pyrid-3-yl)-4-methoxy dibenzo[b,d]furan-1-carboxamide], the melting point worked out at 226 °C. For the same compound, at PDE4 enzyme, the IC50 turned out to be 26 nM.

In the series on PDE4, `COc1ccc(C(=O)Nc2c(Cl)c[n+]([O-])cc2Cl)c2c1oc1ccc(C(F)(F)F)cc12` [Example 10, N-(3,5-dichloropyrid-4-yl)-4-methoxy-8-trifluoromethyl dibenzo[b,d]furan-1-carboxamide-N1-oxide] gave an EC50 of 117 nM. Also, the IC50 on PDE4 enzyme amounted to 1.68 nM.

In turn, `COc1ccc(C(=O)Nc2c(Cl)cncc2Cl)c2c1oc1ccc([N+](=O)[O-])cc12` [Example 38, N-(3,5-dichloropyrid-4-yl)-4-methoxy-8-nitro dibenzo[b,d]furan-1-carboxamide] had an EC50 in the series with PDE4 of 87.9 nM. Further, the IC50 on PDE4 enzyme was 2.85 nM.

`COc1ccc(C(=O)Nc2cccnc2Cl)c2c1oc1ccccc12` [Example 5, N-(2-chloropyrid-3-yl)-4-methoxy dibenzo[b,d]furan-1-carboxamide] had a melting point of 192 °C. Further, the IC50 at PDE4 enzyme was determined as 336 nM.

`COc1ccc(C(=O)Nc2c(Cl)cncc2Cl)c2c1oc1ccc(C(F)(F)F)cc12` [Example 9, N-(3,5-dichloropyrid-4-yl)-4-methoxy-8-trifluoromethyl dibenzo[b,d]furan-1-carboxamide] displayed an EC50 in the series on PDE4 of 17.6 nM. For the same compound, the IC50 at PDE4 enzyme came out at 1.56 nM.

Compound `O=C(Nc1ccncc1)c1ccc(OC(F)F)c2oc3ccc(C(F)(F)F)cc3c12` [Example 14, N-(pyrid-4-yl)-4-difluoromethoxy-8-trifluoromethyl dibenzo[b,d]furan-1-carboxamide] had a melting point of 228 °C. Besides, the IC50 on PDE4 enzyme worked out at 6.41 nM.

As for `COc1ccc(C(=O)Nc2cc[n+]([O-])cc2)c2c1oc1ccccc12` [Example 4, N(pyrid-4-yl)-4-methoxy dibenzo[b,d]furan-1-carboxamide-N1-oxide], the EC50 with PDE4 is > 300 nM. Also, the IC50 on PDE4 enzyme stood at 20.2 nM.

For the compound `COc1ccc(C(=O)Nc2ccncc2)c2c1oc1ccc(C(F)(F)F)cc12` [Example 11, N(pyrid-4-yl)-4-methoxy-8-trifluoromethyl dibenzo[b,d]furan-1-carboxamide], the EC50 in the series on PDE4 is > 220 nM. Also, the IC50 at PDE4 enzyme is 9.14 nM.

`O=C(Nc1c(Cl)cncc1Cl)c1ccc(OCC2CC2)c2oc3ccccc3c12` [Example 25, N-(3,5-dichloropyrid-4-yl)-4-cyclopropylmethoxy dibenzo[b,d]furan-1-carboxamide] showed a melting point of 242 °C. In addition, the IC50 at PDE4 enzyme is 111 nM.

As to `COc1c(C(=O)Nc2c(Cl)cncc2Cl)ccc2c1oc1ccccc12` [Example 52, N-(3,5-dichloropyrid-4-yl)-4-methoxy dibenzo[b,d]furan-3-carboxamide], the melting point was 176 °C (dec.).

In the case of `O=C(Nc1cccnc1)c1ccc(OC(F)F)c2oc3ccc(C(F)(F)F)cc3c12` [Example 16, N-(pyrid-3-yl)-4-difluoromethoxy-8-trifluoromethyl dibenzo[b,d]furan-1-carboxamide], the melting point is 235 to 236 °C.
